According to patent US20070249607A1, “NK-1 AND SEROTONIN TRANSPORTER INHIBITORS” (Bristol-Myers Squibb Company, priority 2006, published 2007):
Where two headings read alike, the source gives them in different places.

Columns and labels:
[1] = molecular target: T1, neurokinin-1 (NK-1) receptor (Homo sapiens, UniProt P25103); test: NK-1 Binding assay ([125I] Substance P competition, U373 cell membranes); details: U373 membranes, [125I] Substance P displacement, read-out: NK-1 IC50
T1 construct: a human glioblastoma-astrocytoma cell line that endogenously expresses the neurokinin-1 (NK-1) receptor; endogenous in cells; host or cells: U373 human glioblastoma-astrocytoma cells (membranes)
T1 sequence (P25103 whole entry): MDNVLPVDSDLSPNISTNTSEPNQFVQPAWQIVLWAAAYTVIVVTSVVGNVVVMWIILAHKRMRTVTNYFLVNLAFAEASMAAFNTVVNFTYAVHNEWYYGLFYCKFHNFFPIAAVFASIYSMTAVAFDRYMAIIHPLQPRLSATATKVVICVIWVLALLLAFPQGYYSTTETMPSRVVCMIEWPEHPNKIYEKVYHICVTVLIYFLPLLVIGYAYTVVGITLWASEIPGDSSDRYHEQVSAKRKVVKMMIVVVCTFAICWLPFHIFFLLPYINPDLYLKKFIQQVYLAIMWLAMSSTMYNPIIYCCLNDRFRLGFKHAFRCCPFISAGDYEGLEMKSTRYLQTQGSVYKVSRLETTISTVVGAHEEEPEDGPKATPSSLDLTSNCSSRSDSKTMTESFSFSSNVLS
Description: NK-1 Binding assay. U373 cells, a human glioblastoma-astrocytoma cell line that endogenously expresses the neurokinin-1 (NK-1) receptor, were grown in a monolayer culture at 37° C. in 5% CO2 and fed with Minimum Essential Medium (MEM) supplemented with 10% fetal bovine serum. Membranes were prepared as follows: Cells were washed twice with ice-cold phosphate-buffered saline (pH 7.4) and then incubated for 5-10 minutes with ice-cold 10 mM Tris buffer (pH 7.4) containing 5 mM EDTA. Cells were removed from plates, homogenized, and centrifuged at 32,000×g for 20 minutes. The resulting supernatant was discarded, and the pellet resuspended by homogenization in 50 mM Tris buffer (pH 7.4) containing 1 mM EDTA and centrifuged at 32,000×g for 20 minutes. The resulting supernatant was discarded, and the pellet resuspended by homogenization in NK-1 binding assay buffer (50 mM Tris-HCL (pH 7.4), 3 mM MnCl2, 200 μg/ml BSA, 5 μg/ml chymostatin, 40 μg/ml bacitracin and 4 μg/ml leupeptin).
On the day of an experiment the membrane preparation was thawed, homogenized and diluted with NK-1 binding assay buffer to the appropriate concentration. […] Substance P, at a concentration of […], and concentrations of drugs ranging from 10000 to 0.01 nM. Samples were incubated for 30 min at 20° C. then filtered through GF/B glass fiber filters (pretreated with 1% polyethyleneimine and 0.3% Triton X-100) using a Brandel cell harvester. The filters were then washed with 10 ml ice cold 50 mM Tris-HCL (pH 7.4) containing 3 mM MgCl2. […] The amount of radioligand bound in the presence and absence of competitor was analyzed by plotting (-)log drug concentration versus the amount of radioligand specifically bound. The midpoint of the displacement curve (IC50, nM), signifies the potency.

[2] = molecular target: T2, human serotonin transporters (Homo sapiens, UniProt P31645); test: Serotonin transporter binding assay ([3H]-citalopram competition, HEK-hSERT cell membranes)
T2 construct: expressed in transfected cells
T2 sequence (P31645 whole entry): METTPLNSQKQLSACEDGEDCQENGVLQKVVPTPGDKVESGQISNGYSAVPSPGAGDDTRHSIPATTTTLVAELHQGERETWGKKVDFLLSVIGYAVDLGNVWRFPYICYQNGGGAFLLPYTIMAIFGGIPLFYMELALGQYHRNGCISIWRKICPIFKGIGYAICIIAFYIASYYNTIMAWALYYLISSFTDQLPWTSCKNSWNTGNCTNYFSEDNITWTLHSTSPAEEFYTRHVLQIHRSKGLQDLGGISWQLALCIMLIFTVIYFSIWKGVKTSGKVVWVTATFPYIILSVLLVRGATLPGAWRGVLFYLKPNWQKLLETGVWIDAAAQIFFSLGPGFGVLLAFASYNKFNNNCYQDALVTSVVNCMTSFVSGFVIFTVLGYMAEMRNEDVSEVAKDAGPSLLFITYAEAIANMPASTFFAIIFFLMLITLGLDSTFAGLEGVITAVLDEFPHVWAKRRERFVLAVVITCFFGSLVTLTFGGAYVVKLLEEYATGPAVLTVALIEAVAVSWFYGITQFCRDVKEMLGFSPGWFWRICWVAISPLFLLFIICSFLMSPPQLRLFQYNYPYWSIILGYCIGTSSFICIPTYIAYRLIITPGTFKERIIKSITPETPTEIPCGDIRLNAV
Description: Serotonin transporter binding assay. HEK-293 cells that stably express human serotonin transporters (HEK-hSERT cells) were grown at 37° C. in 5% CO2 as a monolayer in medium consisting of EMEM supplemented with 10% fetal bovine serum and G418 sulfate (500 μg/ml). To prepare membranes for radioligand binding experiments, cells were rinsed twice with phosphate-buffered saline (138 mM NaCl, 4.1 mM KCl, 5.1 mM Na2PO4, 1.5 mM KH2PO4, 11.1 mM glucose, pH 7.4). Cells were transferred from plates to polypropylene tubes (16×100 mm), centrifuged at 1,200×g for 5 min and were frozen at −80° C. until assay. Following centrifugation, pellets were resuspended by homogenization in buffer consisting of 50 mM Tris (pH 7.7 at 25° C.), 120 mM NaCl and 5 mM KCl and then centrifuged at 32,000×g for 10 min. Following centrifugation, supernatants were discarded and pellets were resuspended in buffer consisting of 50 mM Tris (pH 7.4 at 25° C.), 150 mM NaCl and 5 mM KCl. Membrane homogenates (200 μl/plate) were incubated with 1 nM [^3H]-citalopram (specific activity=85 Ci/mmol) and increasing concentrations of test compounds for 1 hr at 25° C. in a total volume of 250 μl. The assay buffer consisted of 50 mM Tris (pH 7.4 at 25° C.), 120 mM NaCl and 5 mM KCl (pH 7.4 with conc. HCl). Plates were incubated for 1 hr at 25° C., then filtered through 0.5% PEI treated Whatman GF/B filters using a Brandel cell harvester. Filters were washed three times with 3 ml of ice-cold tris wash buffer. Non-specific binding was defined with 10 μM fluoxetine. Amount of radioligand bound in the presence and absence of competitor was analyzed by plotting (-)log drug concentration versus the amount of radioligand specifically bound. The midpoint of the displacement curve (IC50, nM), signifies the potency. Ki values can be calculated using the method of Cheng and Prusoff (Cheng and Prusoff, BiochemicalPharmacology, Vol 22, pp. 3099-3108, Pergamon Press (1973)).

[3] = Table 2, HEK-hSERT membranes, [3H]-citalopram displacement, read-out: SERT IC50
[4] = Table 1, HEK-hSERT membranes, [3H]-citalopram displacement, read-out: SERT IC50

| Structure (SMILES) | IC50 ([1]; Table 2) [nM] | IC50 [2, 3] [nM] | IC50 ([1]; Table 1) [nM] | IC50 [2, 4] [nM] | IC50 [2] [nM] |
| --- | --- | --- | --- | --- | --- |
| C[C@H](OCC1(c2ccccc2)CCNCC1)c1cc(-c2ccc(C#N)cc2)cc(C(F)(F)F)c1 | 0.01 to 100 | 100 to 300 |  |  |  |
| COc1ncc(-c2cc(COCC3(c4ccccc4)CCNCC3)cc(C(F)(F)F)c2)c(OC)n1 |  |  | 100 to 300 | 0.01 to 100 |  |
| FC(F)(F)c1cc(COCC2(c3ccccc3)CCNCC2)cc(-c2cc(Cl)ccc2Cl)c1 | > 300 | 0.01 to 100 |  |  |  |
| FC(F)(F)c1ccc(-c2cc(COCC3(c4ccccc4)CCNCC3)cc(C(F)(F)F)c2)cc1 |  |  | 0.01 to 100 | 0.01 to 100 |  |
| CN1CCC(COCc2cc(-c3ccc(F)cc3F)cc(C(F)(F)F)c2)(c2ccccc2)CC1 | 0.01 to 100 |  |  |  | 0.01 to 100 |
| CC(OCC1(c2ccccc2)CCN(C)CC1)c1cc(-c2ccc(C#N)cc2)cc(C(F)(F)F)c1 (centres unmarked) |  |  | 0.01 to 100 |  | 0.01 to 100 |
| FC(F)(F)c1cc(COCC2(c3ccccc3)CCNCC2)cc(-c2ccc(Cl)nc2)c1 |  |  | 0.01 to 100 | 0.01 to 100 |  |
| CN1CCC(COCc2cc(F)cc(-c3ccc(C#N)cc3)c2)(c2ccccc2)CC1 | 0.01 to 100 |  |  |  | 0.01 to 100 |
| N#Cc1ccc(-c2cc(COCC3(c4ccccc4)CCNCC3)cc(C(F)(F)F)c2)cc1 |  |  | 0.01 to 100 | 0.01 to 100 |  |
| COc1ccc2cc(-c3cc(COCC4(c5ccccc5)CCNCC4)cc(C(F)(F)F)c3)ccc2c1 | > 300 | 0.01 to 100 |  |  |  |
| Cc1cnccc1-c1cc(COCC2(c3ccccc3)CCNCC2)cc(C(F)(F)F)c1 |  |  | 0.01 to 100 | 0.01 to 100 |  |
| N#Cc1ccc(-c2cc(COCC3(c4ccc(F)cc4Br)CCNCC3)cc(C(F)(F)F)c2)cc1 | 0.01 to 100 | 0.01 to 100 |  |  |  |
| CC(C)Oc1ccc(-c2cc(COCC3(c4ccccc4)CCNCC3)cc(C(F)(F)F)c2)cc1 | 100 to 300 | 100 to 300 |  |  |  |
| CCCCOc1ccc(-c2cc(COCC3(c4ccccc4)CCNCC3)cc(C(F)(F)F)c2)cc1 | 0.01 to 100 | 0.01 to 100 |  |  |  |
| COc1ccc(Cl)cc1-c1cc(COCC2(c3ccccc3)CCNCC2)cc(C(F)(F)F)c1 |  |  | > 300 | 0.01 to 100 |  |
| FC(F)(F)c1cc(COCC2(c3ccccc3)CCNCC2)cc(-c2ccc3c(c2)OCO3)c1 |  |  | 0.01 to 100 | 0.01 to 100 |  |
| CC(C)OC(=O)c1ccc(-c2cc(COCC3(c4ccccc4)CCNCC3)cc(C(F)(F)F)c2)cc1 | 0.01 to 100 | 0.01 to 100 |  |  |  |
| Cc1ccc(-c2cc(COCC3(c4ccccc4)CCNCC3)cc(C(F)(F)F)c2)s1 |  |  | 0.01 to 100 | 0.01 to 100 |  |
| COc1ccc(-c2cc(COCC3(c4ccccc4)CCNCC3)cc(C(F)(F)F)c2)cc1F |  |  | 0.01 to 100 | 0.01 to 100 |  |
| CC(C)Cc1ccc(-c2cc(COCC3(c4ccccc4)CCNCC3)cc(C(F)(F)F)c2)cc1 | > 300 | 100 to 300 |  |  |  |
| O=[N+]([O-])c1ccccc1-c1cc(COCC2(c3ccccc3)CCNCC2)cc(C(F)(F)F)c1 | 0.01 to 100 | 0.01 to 100 |  |  |  |
| COc1cc(-c2cc(COCC3(c4ccccc4)CCNCC3)cc(C(F)(F)F)c2)ccc1C#N | 0.01 to 100 | 0.01 to 100 |  |  |  |
| Fc1cccc(F)c1-c1cc(COCC2(c3ccccc3)CCNCC2)cc(C(F)(F)F)c1 |  |  | 0.01 to 100 | 0.01 to 100 |  |
| COc1cc(COCC2(c3ccccc3)CCNCC2)cc(-c2ccc(F)cc2)c1 | 0.01 to 100 | 0.01 to 100 |  |  |  |
| FC(F)(F)Oc1ccc(-c2cc(COCC3(c4ccccc4)CCNCC3)cc(C(F)(F)F)c2)cc1 |  |  | 0.01 to 100 | 0.01 to 100 |  |
| CN1CCC(COCc2cc(-c3ccc(C#N)cc3)cc(C(F)(F)F)c2)(c2cccc(C(F)(F)F)c2)CC1 | 0.01 to 100 |  |  |  | 0.01 to 100 |

| Structure (SMILES) | IC50 ([1]; Table 2) [nM] | IC50 [2, 3] [nM] | IC50 ([1]; Table 1) [nM] | IC50 [2, 4] [nM] | IC50 [2] [nM] |
| --- | --- | --- | --- | --- | --- |
| CCOC(=O)c1cccc(-c2cc(COCC3(c4ccccc4)CCNCC3)cc(C(F)(F)F)c2)c1 | 100 to 300 | 0.01 to 100 |  |  |  |
| COc1ccc(-c2cc(COCC3(c4ccccc4)CCN(C)CC3)cc(C(F)(F)F)c2)c(F)c1F | 0.01 to 100 |  |  |  | 0.01 to 100 |
| FC(F)(F)c1cc(COCC2(c3ccccc3)CCNCC2)cc(-c2ccncc2)c1 |  |  | 0.01 to 100 | 0.01 to 100 |  |
| O=[N+]([O-])c1cccc(-c2cc(COCC3(c4ccccc4)CCNCC3)cc(C(F)(F)F)c2)c1 |  |  | 0.01 to 100 | 0.01 to 100 |  |
| FC(F)(F)c1cc(COCC2(c3ccccc3)CCNCC2)cc(-c2cccc3ccccc23)c1 |  |  | > 300 | 100 to 300 |  |
| FC(F)(F)c1cc(COCC2(c3ccccc3)CCNCC2)cc(-c2ccc3ccccc3c2)c1 |  |  | 100 to 300 | 100 to 300 |  |
| Cn1nc(C(F)(F)F)cc1-c1cc(COCC2(c3ccccc3)CCNCC2)cc(C(F)(F)F)c1 |  |  | > 300 | 0.01 to 100 |  |
| O=C(OCc1ccccc1)c1cccc(-c2cc(COCC3(c4ccccc4)CCNCC3)cc(C(F)(F)F)c2)c1 | > 300 | 0.01 to 100 |  |  |  |
| CC(C)OC(=O)c1cccc(-c2cc(COCC3(c4ccccc4)CCNCC3)cc(C(F)(F)F)c2)c1 | > 300 | 100 to 300 |  |  |  |
| FC(F)(F)c1cc(COCC2(c3ccccc3)CCNCC2)cc(-c2ccc(C3CCCCC3)cc2)c1 | > 300 | 100 to 300 |  |  |  |
| CN1CCC(COCc2cc(-c3ccc(C#N)cc3)cc(C(F)(F)F)c2)(c2ccc(-c3ccco3)cc2)CC1 | 0.01 to 100 |  |  |  | 100 to 300 |
| Cc1ccc(C)c(-c2cc(COCC3(c4ccccc4)CCNCC3)cc(C(F)(F)F)c2)c1 | > 300 | 0.01 to 100 |  |  |  |
| CCOc1ccc2cc(-c3cc(COCC4(c5ccccc5)CCNCC4)cc(C(F)(F)F)c3)ccc2c1 | 100 to 300 | 0.01 to 100 |  |  |  |
| N#Cc1ccc(-c2cc(C#N)cc(COCC3(c4ccccc4)CCNCC3)c2)cc1 | 0.01 to 100 | 0.01 to 100 |  |  |  |
| FC(F)(F)c1cc(COCC2(c3ccccc3)CCNCC2)cc(-c2ccccc2Oc2ccccc2)c1 |  |  | > 300 | 100 to 300 |  |
| CC(=O)Nc1ccc(-c2cc(COCC3(c4ccccc4)CCNCC3)cc(C(F)(F)F)c2)cc1 | 0.01 to 100 | 0.01 to 100 |  |  |  |
| FC(F)(F)c1cc(COCC2(c3ccccc3)CCNCC2)cc(-c2ccccn2)c1 |  |  | 0.01 to 100 | 0.01 to 100 |  |
| FC(F)(F)c1cc(COCC2(c3ccccc3)CCNCC2)cc(-c2ccccc2-c2ccccc2)c1 |  |  | > 300 | 100 to 300 |  |
| COc1c(F)cc(-c2cc(COCC3(c4ccccc4)CCN(C)CC3)cc(C(F)(F)F)c2)cc1F | 0.01 to 100 |  |  |  | 0.01 to 100 |
| Cc1cccc(-c2cc(COCC3(c4ccccc4)CCNCC3)cc(C(F)(F)F)c2)c1 |  |  | 0.01 to 100 | 0.01 to 100 |  |
| N#Cc1cc(F)c(-c2cc(COCC3(c4ccccc4)CCNCC3)cc(C(F)(F)F)c2)cc1F | 0.01 to 100 | 0.01 to 100 |  |  |  |
| CCN1CCC(COCc2cc(-c3ccc(C#N)cc3)cc(C(F)(F)F)c2)(c2ccccc2)CC1 | 0.01 to 100 | > 300 |  |  |  |
| N#Cc1ccc(-c2cc(COCC3(c4ccccc4)CCN(Cc4ccccc4)CC3)cc(C(F)(F)F)c2)cc1 | 0.01 to 100 | > 300 |  |  |  |
| COc1cc(F)c(-c2cc(COCC3(c4ccccc4)CCN(C)CC3)cc(C(F)(F)F)c2)cc1F | 0.01 to 100 |  |  |  | 0.01 to 100 |
| Cc1cc(COCC2(c3ccccc3)CCNCC2)cc(-c2ccc(C#N)cc2)c1 | 0.01 to 100 | 0.01 to 100 |  |  |  |
| COc1ccc(-c2cc(COCC3(c4ccccc4)CCNCC3)cc(C(F)(F)F)c2)nn1 | 0.01 to 100 | 0.01 to 100 |  |  |  |
